# Measurements: article PMC5253077 (Acta biomaterialia, 2016)
# Square brackets hold non-standard residues; d marks the D form. Peptide text beside a SMILES is read from it.
# Tests used:
# [1] = test system: HeLa CCL-2 cells; type: cell-based, human
# [2] = test system: E. coli K12; type: cell-based, Escherichia coli; details: K12, 20 h
# [3] = test system: S. epidermidis 1457; type: cell-based, Staphylococcus epidermidis; details: 1457, 20 h
# [4] = test system: B. subtilis 168; type: cell-based, Bacillus subtilis; details: 168, 20 h
# [5] = test system: S. aureus USA300; type: cell-based, Staphylococcus aureus; details: USA300, 20 h
# [6] = test system: S. aureus USA300; type: cell-based, Staphylococcus aureus
# [7] = test system: E. coli ATCC 25922 and ML-35p strains; details: cited from earlier work
# [8] = test system: E. coli ATCC 35218; details: cited from earlier work
# [9] = test system: B. megaterium; details: cited from earlier work
# [10] = test system: S. aureus ATCC 25923; details: cited from earlier work
# [11] = test system: Candida albicans ATCC 10231; type: cell-based; details: ATCC 10231, 48 h
# [12] = test system: C. glabrata ATCC 2001; type: cell-based, Candida glabrata; details: ATCC 2001, 48 h
# [13] = test system: C. tropicalis ATCC 13803; type: cell-based, Candida tropicalis; details: ATCC 13803, 48 h
# [14] = test system: Porcine RBCs; assay: Hemolytic assay; type: cell-based, pig; details: 2% blood cells in PBS, 37°C, one hour, hemoglobin at 545 nm
# [15] = test system: Chicken RBCs; assay: Hemolytic assay; type: cell-based; details: 2% blood cells in PBS, 37°C, one hour, hemoglobin at 545 nm
# [16] = test system: Human HEK293; assay: MTS cytotoxicity assay; type: cell-based; details: kidney cells
# [17] = test system: Human HaCaT; assay: MTS cytotoxicity assay; type: cell-based; details: skin keratinocytes
# [18] = test system: Human HeLa (HeLa CCL-2); assay: MTS cytotoxicity assay; type: cell-based
MIC E. coli K12 [2] [µM],MIC S. epidermidis 1457 [3] [µM],MIC B. subtilis 168 [4] [µM],MIC S. aureus USA300 [5] [µM],SMILES,MBC S. aureus USA300 [6] [µM],"MIC against S. aureus USA300, 150 mM NaCl [5] [µM]","MIC against S. aureus USA300, pH 6.8 [5] [μM]","MIC against S. aureus USA300, Normal medium (pH 7.4) [5]","MIC against S. aureus USA300, pH 8 [5] [μM]",MIC Candida albicans [11] [µM],MIC Candida glabrata [12] [µM],MIC Candida tropicalis [13] [µM],other results
,,,,CC[C@H](C)[C@H](NC(=O)[C@H](CCCNC(=N)N)NC(=O)[C@H](CCCNC(=N)N)NC(=O)[C@H](CC(C)C)NC(=O)[C@H](Cc1c[nH]c2ccccc12)NC(=O)[C@H](Cc1c[nH]c2ccccc12)NC(=O)[C@H](Cc1c[nH]c2ccccc12)NC(=O)[C@@H](N)CS)C(=O)N[C@@H](Cc1c[nH]c2ccccc12)C(=O)O [CysTetraF2W-RR] (H-CWWWLRRIW-OH),,,,,,,,,cytotoxicity of free peptide to HeLa CCL-2 cells [1]: nontoxic
>100,>50,6.2,3.1 to 6.2,CC[C@H](C)[C@H](NC(=O)[C@H](CCCNC(=N)N)NC(=O)[C@H](CO)NC(=O)[C@H](CC(C)C)NC(=O)[C@H](Cc1c[nH]c2ccccc12)NC(=O)[C@H](Cc1c[nH]c2ccccc12)NC(=O)[C@@H](N)Cc1c[nH]c2ccccc12)C(=O)N[C@@H](Cc1c[nH]c2ccccc12)C(=O)O [TetraF2W] (H-WWWLSRIW-OH),6.2,,,,,,,,
6.2,6.2,3.1,3.1,CC[C@@H](C)[C@@H](NC(=O)[C@@H](CCCCN)NC(=O)[C@@H](CCCNC(=N)N)NC(=O)[C@@H](CC(C)C)NC(=O)[C@@H](Cc1c[nH]c2ccccc12)NC(=O)[C@@H](Cc1c[nH]c2ccccc12)NC(=O)[C@H](N)Cc1c[nH]c2ccccc12)C(=O)N[C@H](Cc1c[nH]c2ccccc12)C(=O)O [TetraF2W-RK-d] (H-[dW][dW][dW][dL][dR][dK][dI][dW]-OH),12.5,,,,,,,,
,,,,CC[C@H](C)[C@H](NC(=O)[C@H](CCCNC(=N)N)NC(=O)[C@H](CO)NC(=O)[C@H](CC(C)C)NC(=O)[C@H](Cc1ccccc1)NC(=O)[C@H](Cc1ccccc1)NC(=O)[C@@H](N)Cc1ccccc1)C(=O)N[C@@H](Cc1ccccc1)C(N)=O [Temporin-SHf] (H-FFFLSRIF-NH2; N-terminus and C-terminus assumed),,,,,,,,,MIC E. coli ATCC 25922 and ML-35p strains [7]: 25 to 30 µM; MIC E. coli ATCC 35218 [8]: > 200 µM; MIC B. megaterium [9]: 3 µM; MIC S. aureus ATCC 25923 [10]: 12.5 µM
25,6.2,6.2,3.1,CC[C@H](C)[C@H](NC(=O)[C@H](CCCCN)NC(=O)[C@H](CCCNC(=N)N)NC(=O)[C@H](CC(C)C)NC(=O)[C@H](Cc1c[nH]c2ccccc12)NC(=O)[C@H](Cc1c[nH]c2ccccc12)NC(=O)[C@@H](N)Cc1c[nH]c2ccccc12)C(=O)N[C@@H](Cc1c[nH]c2ccccc12)C(=O)O [TetraF2W-RK] (H-WWWLRKIW-OH),12.5,3.1,6.2,3.1 μM,3.1,12.5,12.5,3.1 to 6.2,

SMILES,MIC E. coli K12 [2] [µM],MIC S. epidermidis 1457 [3] [µM],MIC B. subtilis 168 [4] [µM],MIC S. aureus USA300 [5] [µM],MBC S. aureus USA300 [6] [µM],"MIC against S. aureus USA300, 150 mM NaCl [5] [µM]","MIC against S. aureus USA300, pH 6.8 [5] [μM]","MIC against S. aureus USA300, Normal medium (pH 7.4) [5]","MIC against S. aureus USA300, pH 8 [5] [μM]",MIC Candida albicans [11] [µM],MIC Candida glabrata [12] [µM],MIC Candida tropicalis [13] [µM],other results
CC[C@H](C)[C@H](NC(=O)[C@H](CCCNC(=N)N)NC(=O)[C@H](CCCCN)NC(=O)[C@H](CC(C)C)NC(=O)[C@H](Cc1c[nH]c2ccccc12)NC(=O)[C@H](Cc1c[nH]c2ccccc12)NC(=O)[C@@H](N)Cc1c[nH]c2ccccc12)C(=O)N[C@@H](Cc1c[nH]c2ccccc12)C(=O)O [TetraF2W-KR] (H-WWWLKRIW-OH),12.5 to 25,12.5,6.2,3.1,12.5,3.1,6.2,3.1 μM,3.1,12.5,12.5,3.1 to 6.2,LC50 (50% hemolytic concentration) Porcine RBCs [14]: 50 µM; LC50 (50% hemolytic concentration) Chicken RBCs [15]: 35 µM; LC50 Human HEK293 [16]: 55 µM; LC50 Human HaCaT [17]: 60 µM; LC50 Human HeLa [18]: 100 µM
CC[C@H](C)[C@H](NC(=O)[C@H](CCCCN)NC(=O)[C@H](CCCCN)NC(=O)[C@H](CC(C)C)NC(=O)[C@H](Cc1c[nH]c2ccccc12)NC(=O)[C@H](Cc1c[nH]c2ccccc12)NC(=O)[C@@H](N)Cc1c[nH]c2ccccc12)C(=O)N[C@@H](Cc1c[nH]c2ccccc12)C(=O)O [TetraF2W-KK] (H-WWWLKKIW-OH),12.5 to 25,6.2,6.2,3.1 to 6.2,>25,3.1 to 6.2,12.5,3.1–6.2 μM,3.1,6.2,6.2 to 12.5,1.6,LC50 (50% hemolytic concentration) Porcine RBCs [14]: 55 µM; LC50 (50% hemolytic concentration) Chicken RBCs [15]: 50 µM; LC50 Human HEK293 [16]: 50 µM; LC50 Human HaCaT [17]: 50 µM; LC50 Human HeLa [18]: 70 µM
